Laboratory results as given in patent US20260225970A1, “SOIL C[…] USE THEREOF” (priority 2020, published 2026).
Like-named read-outs stand apart in the source and are kept apart here.

Test system: Nitrosomonas europaea IF014298
Assay: Bioluminescence nitrification inhibition assay using a nitrifying bacterium in vitro (luxAB-introduced Nitrosomonas europaea)
Type: cell-based
Conditions: for IC80: IF014298, 0.5 h, read-out: Nitrification inhibitory activity ED80; for nitrification inhibitory activity: result in words, conclusion from the bioluminescence assay (Table 2)
Experimental: The nitrification inhibitory action of 2,7-dimethoxy-1,4-naphthoquinone was analyzed using a nitrifying bacterium in vitro (T. Iizumi, M. Mizumoto, K. Nakamura, A Bioluminescence assay using Nitrosomonas europaea for rapid and sensitive detection of nitrification inhibitors (1998) Appl. Environment. Microbiol., 64, 3656-3662).
A nitrifying bacterium (Nitrosomonas europaea IF014298) into which a luciferase gene derived from a bacterium (luxAB) had been introduced was aerobically cultured at 30° C. for 7 to 9 days in a P culture medium containing kanamycin (25 mg/l L). The obtained nitrifying bacterium was washed and then suspended in a fresh P culture medium to prepare a nitrifying bacterial suspension. This nitrifying bacterial suspension was allowed to stand in a dark place for 30 minutes or more before the experiment.
Here, the composition of the P culture medium consisted of 2.5 g of (NH4)2SO4, 0.7 g of KH2PO4, 13.5 g of Na2HPO4, 0.5 g of NaHCO3, 100 mg of MgSO4/7H2O, 5 mg of CaCl2/2H2O, 1 mg of Fe-EDTA, and 1 L of water, and the pH thereof was 8.0.
After mixing in vitro an aqueous solution of the above-described nitrifying bacterial suspension, consisting of 0.25 mL of the above-described nitrifying bacterial suspension and 0.2 mL of water, with 0.01 mL of a sample solution of 2,7-dimethoxy-1,4-naphthoquinone at various concentrations, the amount of bioluminescence associated with the nitrification reaction during culturing at 15° C. for 30 minutes was measured using a luminometer (manufactured by Turner Designs, Inc., model name: TD20/20), whereby the nitrification action was evaluated.
The amount of bioluminescence associated with the nitrification reaction decreases in a case where a substance having a nitrification inhibitory action is present in the sample solution. Therefore, the amount of luminescence in a case where each of the sample solutions of 2,7-dimethoxy-1,4-naphthoquinone at various concentrations was added to the aqueous solution of the nitrifying bacterial suspension was divided by the amount of luminescence in the case of only using the aqueous solution of the bacterial cell suspension without the sample solution being added, thereby obtaining a value as the nitrification inhibition rate. The results of measuring the nitrification inhibitory activity of the present compound at various concentrations are shown in FIG. 5.
In addition, the nitrification inhibitory activity of the 1,4-naphthoquinone derivative was measured in the same manner. In Table 2, R^1 to R^6 are each R^1 to R^6 in Formula (1), respectively.

[1] = bioluminescence during culturing at 15° C. for 30 minutes, luxAB Nitrosomonas europaea suspension in P culture medium

Row | Compound | IC80 [1] | nitrification inhibitory activity | IC80 (Nitrosomonas europaea) | ED50 (nitrification inhibition, dose response curve of FIG. 5, second value printed as ED50 in the same sentence, 15° C., 30 minutes) | nitrification inhibitory activity (listed as 2,7-dimethoxy-1,4-naphthoquinone) | nitrification inhibitory activity (listed as zeanone)
1 | CC1=CC(=O)c2ccccc2C1=O [2-Methyl-1,4-naphthoquinone] | 4.4 µM | have a nitrification inhibitory activity | – | – | – | –
2 | O=C1C=CC(=O)c2c(O)ccc(O)c21 [5,8-Dihydroxy-1,4-naphthoquinone] | – | have a nitrification inhibitory activity | 2.2 µM | – | – | –
3 | Cc1ccc2c(c1)C(=O)C=CC2=O [6-Methyl-1,4-naphthoquinone] | 2.2 µM | have a nitrification inhibitory activity | – | – | – | –
4 | O=C1C=CC(=O)c2c(O)cccc21 [5-Hydroxy-1,4-naphthoquinone] | 1.1 µM | have a nitrification inhibitory activity | – | – | – | –
5 | NC1=C(Cl)C(=O)c2ccccc2C1=O [2-Amino-3-chloro-1,4-naphthoquinone] | 13.3 µM | have a nitrification inhibitory activity | – | – | – | –
6 | O=C1C=C(Cl)C(=O)c2ccccc21 [2-Chloro-1,4-naphthoquinone] | 4 µM | have a nitrification inhibitory activity | – | – | – | –
7 | O=C1C=C(O)C(=O)c2ccccc21 [2-Hydroxy-1,4-naphthoquinone] | > 100 µM | does not have a nitrification inhibitory activity | – | – | – | –
8 | COC1=CC(=O)c2ccccc2C1=O [2-Methoxy-1,4-naphthoquinone] | 8.9 µM | have a nitrification inhibitory activity | – | – | – | –
9 | O=C1C(Cl)=C(Cl)C(=O)c2ccccc21 [2,3-Dichloro-1,4-naphthoquinone] | 2.2 µM | have a nitrification inhibitory activity | – | – | – | –
10 | O=C1C(Cl)=C(Cl)C(=O)c2c(O)ccc(O)c21 [2,3-Dichloro-5,8-dihydroxy-1,4-naphthoquinone] | 0.9 µM | have a nitrification inhibitory activity | – | – | – | –
11 | COC1=CC(=O)c2ccc(OC)cc2C1=O [Zeanone, 2,7-dimethoxy-1,4-naphthoquinone] | 16.1 µM | – | – | 16.1 µM | have a nitrification inhibitory activity | excellent nitrification inhibitory action
12 | O=C1C=CC(=O)c2ccccc21 [1,4-Naphthoquinone] | 4.4 µM | have a nitrification inhibitory activity | – | – | – | –
13 | CC1=CC(=O)c2c(O)cccc2C1=O [5-Hydroxy-2-methyl-1,4-naphthoquinone] | 0.5 µM | have a nitrification inhibitory activity | – | – | – | –
